Laboratory results taken from patent US5032398A, “Selective modification of the catalytic subunit of pertussis toxin” (priority 1986, dated 1991).
“And” between values parts separate entries of the source, which are not always exact repeats. Equal entries are not always repeated. Where two headings read alike, the source gives them in different places.

Key:
Type in all cases: biochemical
pertussis toxin [1] = biological target: T1, pertussis toxin (Bordetella pertussis, UniProt P04977); test: Screen of compounds at 1 mM for stimulation of the NADase activity of the toxin (Example Three); details: for Emax at 1000 µM / Fractional Activation: compound 1 mM, relative to 1 mM ATP, toxin preincubated with 20 mM DTT and 2% CHAPS, 3 h at 37° C, average ± half range of two trials; for Emax at 1000 µM: read-out: Fractional Activation
Text: The ADP-ribosylating activity of the pertussis toxin can be detected as a nicotinamide-adenine dinucleotide-glycohydrolase (NADase) activity, which can be conveniently assayed through the use of [nicotinamide-^14 C] or [nicotinamide-^3 H] NAD. NAD consists of ADP-ribose linked to nicotinimide, and thus the extent of the release of ADP-ribose from NAD is an indication of the ability of the toxin to cause ill effects. In conducting this assay of the hydrolysis of labelled NAD, ion-exchange column chromatography was employed to resolve the product from the substrate according to the method described by Moss et al., J. Biol. Chem. 258, 11879 (1983) which is incorporated herein by reference. However, several modifications to this method were employed. First, a QAE-Sephadex resin was employed, as was a [nicotinamide-^3 H] NAD. Specifically, a 2 ml QAE-Sephadex column was first washed with 10 ml 1NHCl, followed by 10 ml H2 O, 20 ml 0.5M Tris-HCl pH 7.0, and 40 ml H2 O. [^3 H] NAD was applied, and the column washed with 20 ml water to elute impurities. Purified [^3 H] NAD was eluted with 0.25M NaCl, and stored in small aliquots at -70° C. The purified [^3 H] NAD contributed 50 mM NaCl (final concentration) to the NADase assays.
Before the end of the reaction, 2 ml QAE-Sephadex columns were treated with 10 ml 0.1M imidazole-HCl pH 7.0 with 1.0M NaCl, followed by 40 ml water. The NADase reaction (in 100 μl) was terminated by adding 0.85 ml of ice-cold water, and the entire 0.95 ml was pipetted into a treated QAE column. The labelled nicotinamide was then eluted with 3 ml of water directly into a scintillation vial and counted. The absorbed labelled NAD was then eluted into radioactive waste with 10 ml 0.1M imidazole-HCl pH 7.0 with 1.0M NaCl, and the column stored partially immersed in a water bath until the next assay.
(§1) The pertussis toxin in the Examples comprised 50 μg of the toxin in a 500 μl solution of 10 mM sodium phosphate-50 mM sodium chloride-water solution having a pH of 7. The enzymatic activity was detected as the hydrolysis of nicotinamide labelled NAD and ion-exchange column chromatography to resolve the product from the substrate. Unless otherwise noted, the assay was initiated by adding 0.5 to 2.5 μg of the toxin to a reaction mixture for a final volume of 100 μl. The NADase reaction was terminated by adding 0.85 ml of ice-cold water. The entire 0.95 ml was then pipetted into a QAE-Sephadex column (chloride form) and the labelled nicotinamide eluted with 3 ml of water directly into a scintillation vial and counted. […] One unit of NADase activity is defined as 1 pmol NAD hydrolyzed per hour.
The various compounds were screened for the ability to stimulate the NADase activity of the toxin when present in a concentration of 1 mM. Before assay the toxin (1 μg per assay) was incubated at 37° C. for ten minutes with 20 mM DTT and 2 weight percent CHAPS. Assays were for three hours at 37° C., and fractional activation is defined as activity of the compound less the activity in the absence of an activator divided by the activity in the presence of 1 mM ATP less activity in the absence of the activator. The value given is the average plus one-half the range for two separate trials. In each trial, duplicates were measured. […] The results are shown in Table II, wherein P denotes phosphate.

pertussis toxin [2] = biological target: T1, pertussis toxin; test: Activation constants (A0.5) of polyphosphates by NADase assay; details: for fraction of the ATP effect / EC50: in the presence of a mild detergent
Protocol: In the description herein, activation constants for the substances may be expressed by a numerical value (A0.5) by using an NADase assay.
as §1

pertussis toxin [3] = biological target: T1, pertussis toxin; test: Inactivation of NADase activity by sulfhydryl reagents, 6 minutes or 18 hours at 0-4° (Example Eight); details: first incubation: ATP, DTT, CHAPS
Protocol: (§2) Pertussis toxin was incubated at 37° C. for fifteen minutes as described in Example Six, and then a second incubation was begun by adding 10 μl buffer A with or without 12.5 mM iodoacetate, mixing the contents of the tube and lowering the temperature to 30° C. After fifteen minutes, the tubes were shifted to an ice bath for ten minutes. A third incubation was then begun by adding 10 μl buffer A containing 200 mM DTT to those tubes containing iodoacetate to scavenge the iodoacetate. To those tubes not containing iodoacetate during the second incubation, a mixture of 200 mM DTT and 12.5 mM iodoacetate in buffer A, previously incubated for an hour on ice, was added. The third incubation was continued for one hour on ice.
(§3) The contents of each tube were then assayed for NADase activity by adding 40 μl of a reaction mix consisting of buffer A containing carbon-14 labelled NAD (final concentration in the 100 μl final volume was 25 μM), and 50 mM sodium chloride. Different reaction mixtures with various additions were used, so that in all tubes the final concentration of ATP was 1 mM and CHAPS was 1 weight percent. The assay was conducted at 37° C. for sixty minutes, and the released labelled nicotinimide was isolated and counted. The iced controls were formed by incubating pertussis toxin (1 μg) on ice in 10 mM sodium phosphate (pH 7) and 50 mM sodium chloride during the first three incubations. […] The first three incubations were done under a nitrogen atmosphere using degassed conditions, and the second and third incubations were done under subdued light.
The procedure followed in Example Seven was repeated for this study, except that N-ethylmaleimide, chloroacetamide or chloroacetate were substituted for iodoacetate. After the 30° C. incubation, the tubes were either incubated for six minutes or eighteen hours at 0°-4° C. before the 10 μl of 200 mM DTT (with or without quenched reagent) was added. Those tubes receiving the DTT after six minutes were incubated for nineteen hours at 0°-4° C. prior to the NADase assay. Those receiving the DTT after eighteen hours were incubated with DTT for one hour, as in Example Seven. The tubes were then assayed for NADase activity at the same time.

pertussis toxin [4] = biological target: T1, pertussis toxin; test: Inactivation of NADase activity by iodoacetate after different activator combinations (Example Seven); details: additions to first incubation only (DTT 1 mM, ATP 1 mM, CHAPS 1%); second incubation none; read-out: Percent NADase activity relative to iced control
Protocol: Pertussis toxin was incubated first at 37° C. for fifteen minutes in […] buffer A (100 mM Tris-HCl, pH 8.0 with 1 mM NaEDTA). EDTA was added to chelate divalent cations, which may promote oxidation of free --SH groups. During this incubation, DTT and ATP were present in concentrations of 1 mM each, and CHAPS was present in a concentration of 1 weight percent. Labelled iodoacetate was then added ([…], 12.5 mM), and the tube incubated on ice for twenty hours. The sample was then mixed with sodium dodecylsulfate and β-mercaptoethanol, heated at 95° C. for one minute, and electrophoresed. After electrophoresis, the gel was fixed, treated with Fluorohance (Research Products International), dried and used to expose x-ray film.
as §2, §3

[5] = FIGS. 1A and 1B, read-out: activation constants (A0.5)

T1 sequence (P04977 35-269 limits assumed): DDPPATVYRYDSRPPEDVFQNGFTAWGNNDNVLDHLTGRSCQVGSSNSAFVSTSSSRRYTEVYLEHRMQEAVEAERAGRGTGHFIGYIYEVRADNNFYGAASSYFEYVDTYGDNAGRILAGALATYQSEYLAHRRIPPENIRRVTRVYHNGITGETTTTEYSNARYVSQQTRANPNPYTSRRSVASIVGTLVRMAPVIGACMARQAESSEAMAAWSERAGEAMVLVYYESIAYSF

Compound `Cc1ncc(COP(=O)(O)O)c(C=O)c1O` [pyridoxal-P] has an Emax at 1000 µM (pertussis toxin [1]) of 53 ± 6%.
Work on `O=P(O)(O)OC(CO)CO` [2-glycerol-P] yielded an Emax at 1000 µM (pertussis toxin [1]) of -1 ± 3%.
For `O=P(O)(O)OP(=O)(O)OP(=O)(O)O` [tripoly-P, tripolyphosphate], the “Fractional Activation” value (pertussis toxin [1]) was 0.98 ± .14 and the “fraction of the ATP effect” value (pertussis toxin [2]; FIGS. 1A and 1B) was 0.6.
In the case of `O=P(O)(O)O` [P, phosphate], the “Stimulation (activation) of pertussis toxin, in words” value (from here on “Stimulation (activation)”) (pertussis toxin [1]) is reported as “ineffective” and the “Fractional Activation” value (pertussis toxin [1]) is reported as 0.01 ± .01.
`O=C(O)CCl` [chloroacetate] was tested, and the NADase activity (pertussis toxin [3]; 6 minutes at 0-4°) was 86 pmol per μg per hour, the “percent of activity with no addition to second incubation” value (“percent of activity with no addition” for short) (pertussis toxin [3]; 6 minutes at 0-4°) was 91% and the NADase activity (pertussis toxin [3]; 18 hours at 0-4°) was 85 pmol per μg per hour. For the same compound, the “percent of activity with no addition” value (pertussis toxin [3]; 18 hours at 0-4°) was 87%.
With `NC(COP(=O)(O)O)C(=O)O` (stereo not shown) [serine-P] the Emax at 1000 µM (pertussis toxin [1]) was -4 ± 2%.
`Nc1ncnc2c1ncn2[C@@H]1O[C@H](COP(=O)(O)OP(=O)(O)O)[C@@H](O)[C@H]1O` [ADP] was tested, and the “Stimulation (activation)” value (pertussis toxin [1]) was “effective”, the Emax at 1000 µM (pertussis toxin [1]) was 107 ± 6% and the EC50 (pertussis toxin [2]; [5]) was 6 µM.
In the case of `O=c1[nH]cnc2c1ncn2[C@@H]1O[C@H](COP(=O)(O)OP(=O)(O)OP(=O)(O)O)[C@@H](O)[C@H]1O` [ITP], the Emax at 1000 µM (pertussis toxin [1]) is reported as 85 ± 1%.
Compound `Nc1ncnc2c1ncn2[C@@H]1O[C@H](COP(=O)(O)O)[C@@H](O)[C@H]1O` [AMP] has an Emax at 1000 µM (pertussis toxin [1]) of 26 ± 9%.
With `Nc1ncnc2c1ncn2[C@@H]1O[C@H](COP(=O)(O)OP(=O)(O)OP(=O)(O)O)[C@@H](O)[C@H]1O` [ATP] the remaining activity at 1000 µM (pertussis toxin [4]) was 13%, the “Stimulation (activation)” value (pertussis toxin [1]) was “effective” and the “NADase activity in the presence of 1 mM ATP” value (pertussis toxin [1]; two trials, without ATP 44 and 18) was 111 units per microgram toxin and 97 units per microgram toxin. It also gave an EC50 (pertussis toxin [2]; [5]) of 0.2 µM and an EC50 (pertussis toxin [2]; read-out: activation constant) of roughly 0.2 µM.
With `Nc1ncnc2c1ncn2[C@@H]1O[C@H](CO)[C@@H](O)[C@H]1O` [adenosine] the “Stimulation (activation)” value (pertussis toxin [1]) was “ineffective”, the Emax at 1000 µM (pertussis toxin [1]) was 2 ± 2% and the “Effect on the dose-response relationship of ATP or pyrophosphate” value (pertussis toxin [2]; adenosine 1 mM) was “failed to significantly alter”.
Compound `Nc1nc2c(ncn2[C@@H]2O[C@H](COP(=O)(O)OP(=O)(O)OP(=O)(O)O)[C@@H](O)[C@H]2O)c(=O)[nH]1` [GTP] has an Emax at 1000 µM (pertussis toxin [1]) of 87 ± 1% and an EC50 (pertussis toxin [2]; [5]) of 35 µM.
For `O=c1ccn([C@@H]2O[C@H](COP(=O)(O)OP(=O)(O)OP(=O)(O)O)[C@@H](O)[C@H]2O)c(=O)[nH]1` [UTP], the Emax at 1000 µM (pertussis toxin [1]) was 92 ± 3% and the EC50 (pertussis toxin [2]; [5]) was 15 µM.
`NC(=O)CCl` [chloroacetamide] was tested, and the NADase activity (pertussis toxin [3]; 6 minutes at 0-4°) was 76 pmol per μg per hour, the “percent of activity with no addition” value (pertussis toxin [3]; 6 minutes at 0-4°) was 79% and the NADase activity (pertussis toxin [3]; 18 hours at 0-4°) was 35 pmol per μg per hour. The “percent of activity with no addition” value (pertussis toxin [3]; 18 hours at 0-4°) was 36%.
In the case of `CC(OP(=O)(O)O)C(N)C(=O)O` (stereo not shown) [threonine-P], the Emax at 1000 µM (pertussis toxin [1]) is reported as 1 ± 1%.
With `O=P(O)(O)OP(=O)(O)O` [pyro-P, pyrophosphate] the “Stimulation (activation)” value (pertussis toxin [1]) was “effective”, the “Fractional Activation” value (pertussis toxin [1]) was 0.85 ± .11 and the “fraction of the ATP effect” value (pertussis toxin [2]; FIGS. 1A and 1B) was 0.7.
For `Nc1ccn([C@@H]2O[C@H](COP(=O)(O)OP(=O)(O)OP(=O)(O)O)[C@@H](O)[C@H]2O)c(=O)n1` [CTP], the Emax at 1000 µM (pertussis toxin [1]) was 103 ± 9%.
In the case of `O=P(O)(O)OC[C@H]1OC(O)[C@H](O)[C@@H](O)[C@@H]1O` (stereo partly shown) [glucose-6-P, glucose 6-phosphate], the “Stimulation (activation)” value (pertussis toxin [1]) is reported as “ineffective” and the Emax at 1000 µM (pertussis toxin [1]) is reported as -3 ± 2%.
With `O=P1([O-])OP(=O)([O-])OP(=O)([O-])O1.[Na+].[Na+].[Na+]` [trimeta-P, trimetaphosphate] the “Fractional Activation” value (pertussis toxin [1]) was 0.69 ± .22, the “fraction of the ATP effect” value (pertussis toxin [2]; FIGS. 1A and 1B) was 0.3 and the EC50 (pertussis toxin [2]; [5]) was no less than 260 µM.
In the case of `O=P(O)(O)OP(=O)(O)OP(=O)(O)OP(=O)(O)O` [tetrapoly-P, tetrapolyphosphate], the “Fractional Activation” value (pertussis toxin [1]) is reported as 0.92 ± .12, the “fraction of the ATP effect” value (pertussis toxin [2]; FIGS. 1A and 1B) is reported as 0.4 and the EC50 (pertussis toxin [2]; [5]) is reported as no less than 170 µM.
`NC(Cc1ccc(OP(=O)(O)O)cc1)C(=O)O` (stereo not shown) [tyrosine-P] was tested, and the Emax at 1000 µM (pertussis toxin [1]) was 2 ± 2%.
